Test results: patent publication US8802597B2, “Herbicidal pyrimidines” (E I du Pont de Nemours and Company, priority 2003, dated 2014)

Key:
Assay type in all cases: in vivo
[1] = test system: barnyardgrass (Echinochloa crus-galli); assay: Test A pre/postemergence
In short: (§1)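 Seeds sown in loam–sand blend received a preemergence directed soil spray of test chemical in non-phytotoxic solvent with surfactant; same-formulation postemergence spray given concurrently to plants 2–10 cm tall at 1- to 2-leaf stage. Greenhouse ~ten days, then visual injury rating versus untreated controls, 0 (no effect) to 100 (complete control).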

[2] = test system: crabgrass (Digitaria sanguinalis); assay: Test A pre/postemergence
In short: as §1

[3] = test system: giant foxtail (Setaria faberi); assay: Test A pre/postemergence
In short: as §1

[4] = test system: morningglory (Ipomoea spp.); assay: Test A pre/postemergence
In short: as §1

[5] = test system: redroot pigweed (Amaranthus retroflexus); assay: Test A pre/postemergence
In short: as §1

[6] = test system: velvetleaf (Abutilon theophrasti); assay: Test A pre/postemergence
In short: as §1

[7] = test system: corn (Zea mays); assay: Test C pre/postemergence; details: Postemergence; for Corn plant response rating: 125 g ai/ha, scale 0 to 100 (0 no effect, 100 complete control)
In short: (§2)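 Applications: preemergence onto seeded soil and postemergence onto 1- to 4-leaf seedlings, compound carried in non-phytotoxic solvent plus surfactant. Kept in greenhouse 12 to 14 days. Scored visually relative to untreated controls, 0 (no effect) to 100 (complete control).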

[8] = test system: goosegrass (Eleusine indica); assay: Test C pre/postemergence; details: Postemergence; for Goosegrass plant response rating: 125 g ai/ha, scale 0 to 100 (0 no effect, 100 complete control)
In short: as §2

[9] = test system: lambsquarters (Chenopodium album); assay: Test C pre/postemergence; details: Postemergence; for Lambsquarters plant response rating: 125 g ai/ha, scale 0 to 100 (0 no effect, 100 complete control)
In short: as §2

[10] = test system: soybean (Glycine max); assay: Test C pre/postemergence; details: Postemergence; for Soybean plant response rating: 125 g ai/ha, scale 0 to 100 (0 no effect, 100 complete control)
In short: as §2

[11] = test system: chickweed (Stellaria media); assay: Test C postemergence; details: for Chickweed plant response rating: 125 g ai/ha, scale 0 to 100 (0 no effect, 100 complete control)
In short: as §2

[12] = Postemergence, 125 g ai/ha, 0 to 100 scale (0 no effect, 100 complete control)
[13] = Postemergence, 500 g ai/ha, 0 to 100 scale (0 no effect, 100 complete control)
[14] = Preemergence, 125 g ai/ha, 0 to 100 scale where 0 is no effect and 100 is complete control, approximately ten days
[15] = Preemergence, 500 g ai/ha, 0 to 100 scale where 0 is no effect and 100 is complete control, approximately ten days

## Nc1nc(-c2ccc(Br)cc2)nc(C(=O)O)c1Br [Compound 136]
[1]; [12]
  Plant response rating, Barnyardgrass: 50
[1]; [13]
  Plant response rating, Barnyardgrass: 80
[1]; [14]
  Plant response rating, Barnyardgrass: 5
[1]; [15]
  Plant response rating, Barnyardgrass: 40
[2]; [12]
  Plant response rating, Crabgrass: 35
[2]; [13]
  Plant response rating, Crabgrass: 70
[2]; [14]
  Plant response rating, Crabgrass: 20
[2]; [15]
  Plant response rating, Crabgrass: 60
[3]; [12]
  Plant response rating, Foxtail, Giant: 75
[3]; [13]
  Plant response rating, Foxtail, Giant: 80
[3]; [14]
  Plant response rating, Foxtail, Giant: 10
[3]; [15]
  Plant response rating, Foxtail, Giant: 60
[4]; [12]
  Plant response rating, Morningglory: 70
[4]; [13]
  Plant response rating, Morningglory: 80
[4]; [14]
  Plant response rating, Morningglory: 10
[4]; [15]
  Plant response rating, Morningglory: 20
[5]; [12]
  Plant response rating, Pigweed: 85
[5]; [13]
  Plant response rating, Pigweed: 100
[5]; [14]
  Plant response rating, Pigweed: 45
[5]; [15]
  Plant response rating, Pigweed: 100
[6]; [12]
  Plant response rating, Velvetleaf: 85
[6]; [13]
  Plant response rating, Velvetleaf: 95
[6]; [14]
  Plant response rating, Velvetleaf: 30
[6]; [15]
  Plant response rating, Velvetleaf: 75
[7]; 16 g ai/ha
  Plant response rating (scale of 0 to 100), Corn: 35
[7]; 31 g ai/ha
  Plant response rating (scale of 0 to 100), Corn: 35
[7]; 62 g ai/ha
  Plant response rating (scale of 0 to 100), Corn: 65
[7]
  Corn plant response rating: 75
[8]; 16 g ai/ha
  Plant response rating (scale of 0 to 100), Goosegrass: 50
[8]; 31 g ai/ha
  Plant response rating (scale of 0 to 100), Goosegrass: 65
[8]; 62 g ai/ha
  Plant response rating (scale of 0 to 100), Goosegrass: 75
[8]
  Goosegrass plant response rating: 80
[9]; 16 g ai/ha
  Plant response rating (scale of 0 to 100), Lambsquarters: 95
[9]; 31 g ai/ha
  Plant response rating (scale of 0 to 100), Lambsquarters: 95
[9]; 62 g ai/ha
  Plant response rating (scale of 0 to 100), Lambsquarters: 95
[9]
  Lambsquarters plant response rating: 95
[10]; 16 g ai/ha
  Plant response rating (scale of 0 to 100), Soybean: 95
[10]; 31 g ai/ha
  Plant response rating (scale of 0 to 100), Soybean: 100
[10]; 62 g ai/ha
  Plant response rating (scale of 0 to 100), Soybean: 100
[10]
  Soybean plant response rating: 100
[11]; 16 g ai/ha
  Plant response rating (scale of 0 to 100), Chickweed: 45
[11]; 31 g ai/ha
  Plant response rating (scale of 0 to 100), Chickweed: 50
[11]; 62 g ai/ha
  Plant response rating (scale of 0 to 100), Chickweed: 50
[11]
  Chickweed plant response rating: 50

## COC(=O)c1nc(-c2ccc(Cl)cc2)nc(N)c1Br [Compound 83]
[1]; [12]
  Plant response rating, Barnyardgrass: 0
[1]; [13]
  Plant response rating, Barnyardgrass: 10
[1]; [14]
  Plant response rating, Barnyardgrass: 0
[1]; [15]
  Plant response rating, Barnyardgrass: 5
[2]; [12]
  Plant response rating, Crabgrass: 0
[2]; [13]
  Plant response rating, Crabgrass: 10
[2]; [14]
  Plant response rating, Crabgrass: 0
[2]; [15]
  Plant response rating, Crabgrass: 5
[3]; [12]
  Plant response rating, Foxtail, Giant: 0
[3]; [13]
  Plant response rating, Foxtail, Giant: 10
[3]; [14]
  Plant response rating, Foxtail, Giant: 0
[3]; [15]
  Plant response rating, Foxtail, Giant: 0
[4]; [12]
  Plant response rating, Morningglory: 55
[4]; [13]
  Plant response rating, Morningglory: 75
[4]; [14]
  Plant response rating, Morningglory: 0
[4]; [15]
  Plant response rating, Morningglory: 10
[5]; [12]
  Plant response rating, Pigweed: 70
[5]; [13]
  Plant response rating, Pigweed: 85
[5]; [14]
  Plant response rating, Pigweed: 20
[5]; [15]
  Plant response rating, Pigweed: 50
[6]; [12]
  Plant response rating, Velvetleaf: 90
[6]; [13]
  Plant response rating, Velvetleaf: 90
[6]; [14]
  Plant response rating, Velvetleaf: 15
[6]; [15]
  Plant response rating, Velvetleaf: 30
[7]; 16 g ai/ha
  Plant response rating (scale of 0 to 100), Corn: 5
[7]; 31 g ai/ha
  Plant response rating (scale of 0 to 100), Corn: 15
[7]; 62 g ai/ha
  Plant response rating (scale of 0 to 100), Corn: 50
[7]
  Corn plant response rating: 60
[8]; 16 g ai/ha
  Plant response rating (scale of 0 to 100), Goosegrass: 10
[8]; 31 g ai/ha
  Plant response rating (scale of 0 to 100), Goosegrass: 10
[8]; 62 g ai/ha
  Plant response rating (scale of 0 to 100), Goosegrass: 30
[8]
  Goosegrass plant response rating: 45
[9]; 16 g ai/ha
  Plant response rating (scale of 0 to 100), Lambsquarters: 90
[9]; 31 g ai/ha
  Plant response rating (scale of 0 to 100), Lambsquarters: 95
[9]; 62 g ai/ha
  Plant response rating (scale of 0 to 100), Lambsquarters: 95
[9]
  Lambsquarters plant response rating: 100
[10]; 16 g ai/ha
  Plant response rating (scale of 0 to 100), Soybean: 85
[10]; 31 g ai/ha
  Plant response rating (scale of 0 to 100), Soybean: 90
[10]; 62 g ai/ha
  Plant response rating (scale of 0 to 100), Soybean: 100
[10]
  Soybean plant response rating: 100
[11]; 16 g ai/ha
  Plant response rating (scale of 0 to 100), Chickweed: 0
[11]; 31 g ai/ha
  Plant response rating (scale of 0 to 100), Chickweed: 0
[11]; 62 g ai/ha
  Plant response rating (scale of 0 to 100), Chickweed: 10
[11]
  Chickweed plant response rating: 30
